What was measured:
[1] = system: E. coli K88 cells; assay: Pathogen agglutination, microscopic analysis; type: cell-based; conditions: 0.025%, pH 7.0, 10 minutes; versus xylose, penta- and deca-xylo-oligo-saccharides
Description: Tri and/or tetra-manno-oligo-saccharides were incubated in liquid at a dose of 0.025% at pH 7.0 with E. coli K88 and Lactobacillus amylovorus cells for 10 minutes. After 10 minutes, agglutination was visualised by means of microscopic analysis.

[2] = Chicken performance (weight, feed conversion); type: in vivo, chickens; conditions: feed with 3 ppm flavomycin or 0.025% oligo-saccharides
From the text: 3×40 one day old chickens were provided with following feeds: control feed, control feed supplemented with 3 ppm flavomycin and control feed supplemented with 0.025% tri- and/or tetra-manno-oligo-saccharides. The control feed was a mash feed, composed of raw materials suitable for animal nutrition. Water and feed were supplied ad libitum. The chickens were contaminated at day 2 with caecum contents of 3 week old chickens (most critical period for gastrointestinal problems). At regular time intervals, chickens were dissected and the enteric pathogen contents in the small intestine were determined by plate counting on MacConkey agar.
The same experimental conditions were applied as described in experiment 1. In this example, daily growth and feed conversion were monitored after 13 days.

OC1OC[C@@H](O[C@@H]2OC[C@@H](O[C@@H]3OC[C@@H](O)[C@H](O)[C@H]3O)[C@H](O)[C@H]2O)[C@H](O)[C@H]1O (some centres unmarked) [tri-xylo-oligo-saccharides]
agglutination, comparison of degree of polymerisation of xylo-oligo-saccharides [1]: best agglutination

tetra-xylo-oligo-saccharides
agglutination, comparison of degree of polymerisation of xylo-oligo-saccharides [1]: best agglutination

flavomycin
Feed conversion/chicken ([2]; after 13 days): 1.51
Weight/chicken at day 1 ([2]; day 1): 43.54
Weight/chicken at day 13 ([2]; day 13): 208.8

Source: US8729051B2, “Tri- and tetra-oligo-saccharides suitable as agglutination agents for enteric pathogens” (Nutrition Sciences N.V./S.A., priority 2006, dated 2014)
